Results reported in ChEMBL document CHEMBL5260796, “Thiazolidinediones and PPAR orchestra as antidiabetic agents: From past to present” (Eur J Med Chem, 2017).

Columns and labels:
Rattus norvegicus = experiment: Antidiabetic activity against STZ-induced diabetic Sprague-Dawley rat assessed as reduction in fasting blood glucose level at 0.1 mg/kg,po for 2 months; assay type: functional; parameters: scale not given: the % may be the effect or the level left; details: 1460 h
Mus musculus = experiment: Antidiabetic activity against diabetic KKAy mouse model assessed as decrease in plasma glucose level at 50 mg/kg,po by glucose analyzer; assay type: functional; parameters: scale not given: the % may be the effect or the level left

SMILES	Activity (Rattus norvegicus) [%]	Activity (Mus musculus) [%]
Cc1oc(-c2ccccc2)nc1CCC(=O)c1ccc(CC2SC(=O)NC2=O)cc1 (configuration not stated) [DARGLITAZONE]	80	
Cc1c(C)c2c(c(C)c1O)CCC(C)(COc1ccc(CC3SC(=O)NC3=O)cc1)O2 (configuration not stated) [TROGLITAZONE]		38.5
